Measurements as given in publication PMC6273209, “Evaluation of the Enantiomer Specific Biokinetics and Radiation Doses of [^18F]Fluspidine—A New Tracer in Clinical Translation for Imaging of σ1 Receptors” (Molecules, 2016).
Values joined by “and” are separate entries in the source; they are usually repeats but may differ in a detail not shown here. Identical values can stand only once.

Assay: Human dosimetry estimation from small animal PET/MRI (imaging method)
Format: in vivo, CD-1 mice
Details: for OD Adrenals / OD Brain / OD Breasts / OD Gallbladder Wall / OD Heart Wall / OD Kidneys / OD LLI Wall / OD Liver / OD Lungs / OD Muscle / OD Osteogenic Cells / OD Ovaries / OD Pancreas / OD Red Marrow / OD Skin / OD Small Intestine / OD Spleen / OD Stomach Wall / OD Testes / OD Thymus / OD Thyroid / OD Total Body / OD ULI Wall / OD Urinary Bladder Wall / OD Uterus / ED Contr. Adrenals / ED Contr. Brain / ED Contr. Breasts / ED Contr. Gallbladder Wall / ED Contr. Heart Wall / ED Contr. Kidneys / ED Contr. LLI Wall / ED Contr. Liver / ED Contr. Lungs / ED Contr. Muscle / ED Contr. Osteogenic Cells / ED Contr. Ovaries / ED Contr. Pancreas / ED Contr. Red Marrow / ED Contr. Skin / ED Contr. Small Intestine / ED Contr. Spleen / ED Contr. Stomach Wall / ED Contr. Testes / ED Contr. Thymus / ED Contr. Thyroid / ED Contr. Total Body / ED Contr. ULI Wall / ED Contr. Urinary Bladder Wall / ED Contr. Uterus: mouse PET/MRI; for OD Adrenals / OD Brain / OD Breasts / OD Gallbladder Wall / OD Heart Wall / OD Kidneys / OD LLI Wall / OD Liver / OD Lungs / OD Muscle / OD Osteogenic Cells / OD Ovaries / OD Pancreas / OD Red Marrow / OD Skin / OD Small Intestine / OD Spleen / OD Stomach Wall / OD Testes / OD Thymus / OD Thyroid / OD Total Body / OD ULI Wall / OD Urinary Bladder Wall / OD Uterus: scaled to human adult male model; for ED Contr. Adrenals / ED Contr. Brain / ED Contr. Breasts / ED Contr. Gallbladder Wall / ED Contr. Heart Wall / ED Contr. Kidneys / ED Contr. LLI Wall / ED Contr. Liver / ED Contr. Lungs / ED Contr. Muscle / ED Contr. Osteogenic Cells / ED Contr. Ovaries / ED Contr. Pancreas / ED Contr. Red Marrow / ED Contr. Skin / ED Contr. Small Intestine / ED Contr. Spleen / ED Contr. Stomach Wall / ED Contr. Testes / ED Contr. Thymus / ED Contr. Thyroid / ED Contr. Total Body / ED Contr. ULI Wall / ED Contr. Urinary Bladder Wall / ED Contr. Uterus / ED: ICRP 103 weighting; for ED ICRP 60 / ED: mouse, imaging (PET/MRI); for ED ICRP 60: ICRP 60 weighting
Procedure: The animals were initially anesthetized with 4% of isoflurane and were positioned prone in a small-animal PET/MRI system (nanoScan® PET/MRI, MEDISO, Budapest, Hungary) equipped with respiratory monitoring, heated mouse bed (37 °C), and inhalation anesthesia (1.8% isoflurane in a 60% oxygen/40% air gas mixture at 250 mL/min airflow; Anaesthesia Unit U-410, agntho’s, Lidingö, Sweden; Gas blender 100 series, MCQ Instruments, Rome, Italy). Prior to the PET scan, a scout image MR sequence was done to outline the animal dimensions. Female CD-1 mice (age: 12 weeks, weight: 30.9 ± 1.3 g) were injected via the tail vein with (S)-(−)-[^18F]fluspidine (13.2 ± 3.0 MBq; n = 3) or (R)-(+)-[^18F]fluspidine (12.6 ± 1.4 MBq; n = 3) in a volume of 200 μL saline. The injected dose was calculated by the difference of the radioactivity in the syringe before and after the injection. A dynamic whole body animal PET scan of 105 min length (Figure 1) was started simultaneously. This scanning time was chosen to represent the protocol of the human study (after time extrapolation according to Equation (2)) based on a priori biokinetic information from the ex vivo investigation. Following the PET scan, a 20 min T1-weighted whole body MR scan (gradient echo sequence, TR = 20 ms; TE = 3.2 ms) was performed for anatomical orientation after co-registration and attenuation correction at the reconstruction step.
The PET images were iteratively (ordered-subsets expectation maximization, OSEM) reconstructed (preclinical: 4 iterations, 6 subsets; clinical: 4 iterations, 8 subsets) and corrected for decay, randoms, scatter, and dead time, μ-maps for attenuation correction of PET-emission data were derived from the CT or MR [49] structural data, respectively. The PET data were re-binned into 10 time frames (preclinical: 4 × 5 min, 1 × 10 min, and 5 × 15 min; clinical: 4 × 12 min, 3 × 16 min, 1 × 32 min, 1 × 40 min, and 1 × 48 min), and the reconstructed PET/MRI and PET/CT images were co-registered manually with ROVER (ABX, advanced chemical compounds, Radeberg, Germany, version 2.1.17). Quantitative evaluation was performed by drawing volumes of interest (VOI) for brain, gallbladder, large intestine, small intestine, stomach, heart, kidneys, liver, lungs, pancreas, red marrow (backbone, pelvis, sternum), spleen, thyroid, testes, and urinary bladder (Figure S4). The PET derived biokinetic data is expressed as percentage of injected activity (dose) per cubic centimeter (%ID/cm^3).
For human dosimetry estimation from animal biodistribution and PET/MR imaging, animal organ masses and time scale was extrapolated to human magnitudes. At first, the organ-specific animal %ID data were extrapolated to the human scale with the equation (1) %ID/organhuman=%ID/gmouse · morganhuman · mmouse/mhuman with the fraction of the injected activity in the corresponding human organ = %ID/organhuman , the fraction of injected activity per gram animal organ tissue = %ID/gmouse and morganhuman the mass of the corresponding human organ. At second, a time scale extrapolation is needed due to differences in the metabolic rate using the equation (2) thuman=tmouse{mhuman/mmouse}^0.25 including the human time scale = thuman , the animal time scale = tmouse and the ratio of animal and human body weights = mmouse/mhuman .
The human dosimetry estimation was performed with the data extrapolated as well as the genuine human data using OLINDA/EXM software. The time-activity curves were estimated by exponential fitting and calculating the time integral, which equals the number of disintegrations (NODs) per organ during the observation period normalized to 1 Becquerel administered activity dose. […] Therefore, activity data of the urinary bladder was derived from the image for each time point. In contrast, for humans the activity concentration data of the urinary bladder was obtained in a more direct approach. […]

## [18F]CC[C@H]1OC2(CCN(Cc3ccccc3)CC2)c2ccccc21 [(R)-(+)-[^18F]fluspidine]
mice, scaled to human
  OD values of (R)-(+)-enantiomer relative to (S)-(−)-enantiomer: up to 1.3 fold
  OD Adrenals: 11.00 μSv/MBq
  OD Brain: 13.20 μSv/MBq
  OD Breasts: 6.19 μSv/MBq
  OD Gallbladder Wall: 30.10 μSv/MBq
  OD Heart Wall: 10.50 μSv/MBq
  OD Kidneys: 26.90 μSv/MBq
  OD LLI Wall: 13.80 μSv/MBq
  OD Liver: 26.10 μSv/MBq
  OD Lungs: 10.80 μSv/MBq
  OD Muscle: 7.86 μSv/MBq
  OD Osteogenic Cells: 14.00 μSv/MBq
  OD Ovaries: 11.90 μSv/MBq
  OD Pancreas: 24.80 μSv/MBq
  OD Red Marrow: 12.80 μSv/MBq
  OD Skin: 5.82 μSv/MBq
  OD Small Intestine: 22.60 μSv/MBq
  OD Spleen: 31.80 μSv/MBq
  OD Stomach Wall: 12.70 μSv/MBq
  OD Testes: 7.63 μSv/MBq
  OD Thymus: 7.52 μSv/MBq
  OD Thyroid: 10.10 μSv/MBq
  OD Total Body: 9.13 μSv/MBq
  OD ULI Wall: 25.60 μSv/MBq
  OD Urinary Bladder Wall: 55.70 μSv/MBq
  OD Uterus: 13.00 μSv/MBq
Scaled to human
  ED Contr. Adrenals: 0.09 μSv/MBq
  ED Contr. Brain: 0.13 μSv/MBq
  ED Contr. Breasts: 0.74 μSv/MBq
  ED Contr. Gallbladder Wall: 0.26 μSv/MBq
  ED Contr. Heart Wall: 0.09 μSv/MBq
  ED Contr. Kidneys: 0.23 μSv/MBq
  ED Contr. LLI Wall: 0.83 μSv/MBq
  ED Contr. Liver: 1.04 μSv/MBq
  ED Contr. Lungs: 1.30 μSv/MBq
  ED Contr. Muscle: 0.07 μSv/MBq
  ED Contr. Osteogenic Cells: 0.14 μSv/MBq
  ED Contr. Ovaries: 0.95 μSv/MBq
  ED Contr. Pancreas: 0.21 μSv/MBq
  ED Contr. Red Marrow: 1.53 μSv/MBq
  ED Contr. Skin: 0.06 μSv/MBq
  ED Contr. Small Intestine: 0.20 μSv/MBq
  ED Contr. Spleen: 0.27 μSv/MBq
  ED Contr. Stomach Wall: 1.52 μSv/MBq
  ED Contr. Testes: 0.00 μSv/MBq
  ED Contr. Thymus: 0.06 μSv/MBq
  ED Contr. Thyroid: 0.41 μSv/MBq
  ED Contr. Total Body: 0.00 μSv/MBq
  ED Contr. ULI Wall: 1.54 μSv/MBq
  ED Contr. Urinary Bladder Wall: 2.23 μSv/MBq
  ED Contr. Uterus: 0.11 μSv/MBq
  ED ICRP 60: 15.2 μSv/MBq
  ED: 14.0 μSv/MBq
Scaled to human, listed as (R)-(+)-[^18F]Fluspidine
  ED: 14.0 μSv/MBq

## FCC[C@@H]1OC2(CCN(Cc3ccccc3)CC2)c2ccccc21 [(S)-(−)-[^18F]fluspidine]
  OD Adrenals: 10.50 μSv/MBq
  OD Brain: 10.10 μSv/MBq
  OD Breasts: 5.93 μSv/MBq
  OD Gallbladder Wall: 25.60 μSv/MBq
  OD Heart Wall: 9.85 μSv/MBq
  OD Kidneys: 37.60 μSv/MBq
  OD LLI Wall: 14.00 μSv/MBq
  OD Liver: 25.00 μSv/MBq
  OD Lungs: 10.40 μSv/MBq
  OD Muscle: 7.57 μSv/MBq
  OD Osteogenic Cells: 12.70 μSv/MBq
  OD Ovaries: 11.50 μSv/MBq
  OD Pancreas: 10.90 μSv/MBq
  OD Red Marrow: 10.80 μSv/MBq
  OD Skin: 5.61 μSv/MBq
  OD Small Intestine: 23.10 μSv/MBq
  OD Spleen: 26.10 μSv/MBq
  OD Stomach Wall: 10.50 μSv/MBq
  OD Testes: 7.46 μSv/MBq
  OD Thymus: 7.19 μSv/MBq
  OD Thyroid: 7.61 μSv/MBq
  OD Total Body: 8.68 μSv/MBq
  OD ULI Wall: 20.50 μSv/MBq
  OD Urinary Bladder Wall: 58.00 μSv/MBq
  OD Uterus: 12.80 μSv/MBq
Scaled to human
  ED Contr. Adrenals: 0.09 μSv/MBq
  ED Contr. Brain: 0.10 μSv/MBq
  ED Contr. Breasts: 0.71 μSv/MBq
  ED Contr. Gallbladder Wall: 0.22 μSv/MBq
  ED Contr. Heart Wall: 0.08 μSv/MBq
  ED Contr. Kidneys: 0.32 μSv/MBq
  ED Contr. LLI Wall: 0.84 μSv/MBq
  ED Contr. Liver: 1.00 μSv/MBq
  ED Contr. Lungs: 1.25 μSv/MBq
  ED Contr. Muscle: 0.07 μSv/MBq
  ED Contr. Osteogenic Cells: 0.13 μSv/MBq
  ED Contr. Ovaries: 0.92 μSv/MBq
  ED Contr. Pancreas: 0.09 μSv/MBq
  ED Contr. Red Marrow: 1.30 μSv/MBq
  ED Contr. Skin: 0.06 μSv/MBq
  ED Contr. Small Intestine: 0.20 μSv/MBq
  ED Contr. Spleen: 0.22 μSv/MBq
  ED Contr. Stomach Wall: 1.26 μSv/MBq
  ED Contr. Testes: 0.00 μSv/MBq
  ED Contr. Thymus: 0.06 μSv/MBq
  ED Contr. Thyroid: 0.30 μSv/MBq
  ED Contr. Total Body: 0.00 μSv/MBq
  ED Contr. ULI Wall: 1.23 μSv/MBq
  ED Contr. Urinary Bladder Wall: 2.32 μSv/MBq
  ED Contr. Uterus: 0.11 μSv/MBq
  ED ICRP 60: 14.8 μSv/MBq
  ED: 12.9 ± 0.4 μSv/MBq and 12.9 μSv/MBq
Scaled to human, listed as (S)-(−)-[^18F]Fluspidine
  ED: 12.9 μSv/MBq
